According to US20250012802A1, “SYSTEMS AND METHODS FOR PREDICTING RESPONSE TO ORAL MINOXIDIL FOR THE TREATMENT OF ANDROGENETIC ALOPECIA” (Follea International, priority 2023, published 2025):
Where “and” joins values, the source holds several entries; their conditions need not be identical. Equal values may be shown once.

System: androgenetic alopecia
Experiment: clinical response to oral minoxidil for androgenetic alopecia
Type: in vivo, human
Parameters: Response: scale not given here
Conditions: for subjects who responded to oral minoxidil: 5 mg men and 1.25 mg women
Text: Clinical trials with minoxidil for the treatment of androgenetic alopecia have shown statistically significant results for maintenance and growth of hair. […] As described herein, the assessment of hair re-growth is based on one or more of the following parameters: patient self assessment, physician assessment using a standardized scale, global photography assessment, hair diameter measurement, average hair length measurement, average hair diameter measurement, and hair weight measurements. The current inventions provide a method of using biochemical variations in minoxidil sulfotransferase activity as a drug response marker for oral and/or topical minoxidil treatment of androgenetic alopecia. Based on the minoxidil sulfotransferase activity level, the method disclosed herein allows a physician or the patient to select the appropriate treatment and dosage thereof for the treatment of androgenetic alopecia.
In one embodiment, the test is conducted by placing a hair follicle in an assay. The hair follicle may be collected prior to minoxidil therapy, or after start of minoxidil therapy. The follicle is placed in a solution containing minoxidil. The assay is then conducted as described above, and is examined to determine whether there is a SULT1A1 response. The results are then used as a predictor for patients who will respond well to minoxidil, and who will respond better to oral minoxidil versus topical application of minoxidil. […] The first column is optical density resulting from the colorimetric testing. The second column indicates response.
A total of 123 subjects recruited. Overall among subjects with OD<0.37 85% responded to oral minoxidil (5 mg men and 1.25 mg women). Overall among subjects with OD>0.37 43% responded to oral minoxidil (5 mg men and 1.25 mg women). This was statistically significant p=0.0088 (Fischer Exact Test). In this cohort, oral minoxidil only worked on 42% of women and 73% of men.

Nc1cc(N2CCCCC2)nc(N)[n+]1[O-] [minoxidil]
share of cohort on whom oral minoxidil worked (men): 73% | Response (response of the individual patient with the OD of the same line, 0/1 not defined in the patent): 1 (15×) and 0 (11×) | subjects who responded to oral minoxidil (subjects with OD<0.37): 85% | subjects who responded to oral minoxidil (subjects with OD>0.37): 43% | share of cohort on whom oral minoxidil worked (women): 42%
